Measured values taken from PubChem BioAssay AID488890 (Southern Research Specialized Biocontainment Screening …, 2010).
Results filed as inconclusive are left out. Active and inactive are the calls of the source. No rule for the calls is given here.

test system: Mycobacterium tuberculosis non-replicating, growth inhibition; test: growth inhibition of non-replicating M. tuberculosis (AID 488890)

SMILES	IC50
O=C(COc1ccc(Br)cc1)N/N=C1/SCC(=O)N1Cc1ccccc1	13 µM (inactive)
O=C(NNc1nc2ccccc2s1)c1ccc(F)cc1	43.8 µM (inactive)
Cc1ccc(Sc2ncccc2N)cc1	41.3 µM (inactive)
C/C(=N/NC(=O)c1cc2ccccc2cc1O)C1C(=O)c2ccccc2C1=O	1.24 µM
CC(C)C(=O)Nc1cccc(-c2nc3ccccc3c(=O)o2)c1	3.79 µM
Cc1cc(CC(C)C)n(-c2nc3ccccc3c(=O)n2OCC(N)=O)n1	16.1 µM (inactive)
CC(=O)n1cc(/C=C2/N=C(c3ccccc3)OC2=O)c2ccccc21	2.59 µM
O=C(Nc1ccccc1F)c1ccc([N+](=O)[O-])s1	0.78 µM
COc1ccc(CN=C2NN=C(c3ccc(Cl)cc3)CS2)cc1	13.8 µM (inactive)
CCCCCCCCCCn1cc(C(C)=O)c(=O)[nH]c1=O	4.74 µM
CSCCC(=O)N1CCCC(CNC(=O)c2ccc(-c3ccccc3)cc2)C1 (stereo unspecified)	17.9 µM (inactive)
COc1cc(C2C3=C(CC(C)(C)CC3=O)OC(N)=C2[N+](=O)[O-])ccc1O (stereo unspecified)	50 µM (inactive)
O=C(O)c1ccc(CN2C(=O)CSC2=S)cc1	9 µM
CCN(CC)CCSc1nnc2c3cc(C)ccc3n(Cc3ccccc3)c2n1	14.3 µM (inactive)
Clc1ccc(OCCOCCN2CCc3ccccc3C2)c(Cl)c1	11.2 µM (inactive)
COC(=O)c1ccc(OCC(=O)c2cccc(OC)c2)cc1	11 µM (inactive)
Cc1ccccc1NC(=O)C1COc2ccccc2O1 (stereo unspecified)	9.25 µM
NC(=O)CN1CCN(C2CC(=O)N(CCc3ccccc3)C2=O)CC1 (stereo unspecified)	19.9 µM (inactive)
COc1ccccc1/C=C/C=N/NC(=O)c1ccncc1	1.08 µM
CC1=NN(C(=O)c2ccccc2)C(O)(c2ccc(Br)cc2)C1 (stereo unspecified)	0.62 µM
Cc1ccc(NC(=O)c2noc(C(C)C)c2[N+](=O)[O-])cc1	19.3 µM (inactive)
S=c1[nH]cnc2sc(-c3ccccc3)cc12	33.3 µM (inactive)
C[C@H](NC(=O)c1[nH]cnc1C(=O)Nc1ccccc1)C(=O)OC(C)(C)C	18.9 µM (inactive)
CCNC(=O)COC(=O)c1ccc(-c2nc3ccccc3s2)s1	5.7 µM

SMILES	IC50
CCOC(=O)Cn1c(-c2ccccc2)ccc(C#N)c1=O	4.71 µM
Cc1ccccc1-n1ncc2c([N+](=O)[O-])cc([N+](=O)[O-])cc21	4.83 µM
CCCNC(=O)N1CCC(c2ccc3c(c2)OCO3)CC1	4.71 µM
CC(C)CSc1nnc2c3ccccc3n(C)c2n1	26.3 µM (inactive)
CCC(C)c1ccc(OCCn2ccnc2)cc1 (stereo unspecified)	10.4 µM (inactive)
CCOC(=O)COc1ccc2c(c1)c(C(=O)OCC)c(C)n2CC	10.9 µM (inactive)
Cc1cccc(-c2cc3nc(C)c(C)c(NCCCn4ccnc4)n3n2)c1	10.9 µM (inactive)
O=C(NCc1ccco1)c1nc2ccccc2s1	4.22 µM
CC(C)=CC1C(C(=O)Nc2ccc(Br)cn2)C1(C)C (stereo unspecified)	3.57 µM
CC(OC(=O)c1ccc([N+](=O)[O-])s1)C(=O)NC1CCCCC1C (stereo unspecified)	0.24 µM
CCCn1nnnc1NC(=O)c1cc(Cl)ccc1Cl	6.8 µM
O=C(N/N=C/c1ccc(OC(=O)c2ccco2)cc1)c1ccccn1	6.05 µM
O=C(OCC(=O)N1CCCCC1)c1cc2ccccc2cc1O	5.84 µM
CN(CC(=O)Nc1ccc(C#N)cc1)Cc1ccc(Cl)c(Cl)c1	12.9 µM (inactive)
CCC1CCc2sc(C(=O)NNC(=O)c3ccncc3)cc2C1 (stereo unspecified)	1.97 µM
COc1ccc(OC(=O)c2cc3cc(Cl)ccc3oc2=O)cc1	10.1 µM (inactive)
Nc1ccc2cc(Br)ccc2c1	0.44 µM
CC(C)CCC1=NN(C(=O)c2ccco2)C(O)(C(F)(F)F)C1 (stereo unspecified)	0.94 µM
O=[N+]([O-])c1cc([N+](=O)[O-])c2cc3ccccc3nc2c1	< 0.1 µM
Cc1ccc(NC(=O)COc2ccc3c(c2)CCC3)nc1	6.66 µM
COc1cccc(-c2cc3nc4c(c(NCC(C)(C)CN(C)C)n3n2)CCCC4)c1	26.2 µM (inactive)
CN1C2CCC1/C(=C/c1ccccn1)C(=O)/C2=C\c1ccccn1	16.3 µM (inactive)
CC(C)(C)c1ccc(-c2nc(C#N)c(NCCCn3ccnc3)o2)cc1	38.2 µM (inactive)
COC(=O)c1ccc(N2CCN(CCNC(=O)Nc3ccc(OC)cc3)CC2)cc1	6.13 µM

SMILES	IC50
CCOC(=O)COc1c(-c2ccc(OC)cc2)oc2ccccc2c1=O	4.43 µM
O=C1CCCCC1Sc1nnc(-c2ccc3c(c2)OCO3)o1 (stereo unspecified)	1.83 µM
O=C(COC(=O)CCC(=O)c1ccc(F)cc1)Nc1ccccc1	11.1 µM (inactive)
CCOc1ccc(C(=O)CCN2CCCCCC2)cc1	2.44 µM
CCOC(=O)Cn1cc(C#N)c2cccc(CC)c21	9.18 µM
CC(=O)Nc1ccc(NC(=O)c2cc([N+](=O)[O-])cc([N+](=O)[O-])c2)cc1	8.92 µM
CCOC(=O)COc1ccc2c(=O)cc(-c3ccccc3)oc2c1	0.83 µM
CCOC(=O)c1ccc(NC(=O)CCSCCc2ccccn2)cc1	23.4 µM (inactive)
Cc1cc(C)n2nc(N)c(N=Nc3ccccc3)c2n1	5.87 µM
CCOC(=O)COc1ccc2c(=O)c(-c3ccccc3OC)coc2c1	2.28 µM
Cc1nnc(SCCC(=O)Nc2ccc(Cl)cc2)o1	39.2 µM (inactive)
Cc1ccc(NC(=O)CO/N=C/c2ccc(N(C)C)cc2)cc1	7.84 µM
Cc1ccc(OCCCCc2c(C)n[nH]c2C)cc1	8.01 µM
O=[N+]([O-])c1ccc(-n2nnnc2-c2ccccc2)c([N+](=O)[O-])c1	6.37 µM
CC1CC(C)CN(CCOCCSc2ccc(Cl)cc2)C1 (stereo unspecified)	30.7 µM (inactive)
Cc1ccc(-c2nnc(SCC#CCOC(=O)c3ccco3)o2)cc1	0.11 µM
O=C(CC1CCCC1)OCn1nnc2ccccc2c1=O	14 µM (inactive)
O=C(Nc1nccs1)c1ccc(Br)cc1	39.5 µM (inactive)
CCOC(=O)Nc1ccc2c(c1)N(C(=O)CCCl)c1ccccc1[S@]2=O	3.68 µM
C=CCN1C(=O)C2(NNc3ccccc3O2)c2ccccc21 (stereo unspecified)	2.25 µM
Cc1cc(Cl)ccc1OCC(=O)NNC(=O)c1cnccn1	6.05 µM
O=C1/C(=C/c2ccco2)CCC1C1CCCC1 (stereo unspecified)	13.8 µM (inactive)
COc1ccc(N=Cc2nc(-c3ccccc3)oc2OC(C)=O)cc1	17.4 µM (inactive)
S=C1SCN(Cc2ccco2)CN1Cc1ccco1	14.1 µM (inactive)

SMILES	IC50
COc1ccc(N2C(=O)CC(Sc3nc4ccccc4s3)C2=O)cc1OC (stereo unspecified)	14.2 µM (inactive)
Fc1ccc(-c2nn(-c3ccccc3)cc2CNCc2ccccc2)cc1	8.72 µM
CCc1nnc(NC(=O)c2cc3ccccc3oc2=O)s1	2.75 µM
Cc1nonc1C(=O)N/N=C/c1ccc([N+](=O)[O-])o1	10.1 µM (inactive)
CN1CCN(C2Cc3ccccc3Sc3cc(C(F)(F)F)ccc32)CC1 (stereo unspecified)	12 µM (inactive)
Cc1c(CN2CCC(CO)(CCOc3ccccc3)CC2)[nH]c2ccc(Cl)cc12	15.9 µM (inactive)
CCOc1ccccc1C(=O)OCC(=O)Nc1nnc(-c2ccccc2)o1	21.7 µM (inactive)
O=[N+]([O-])c1cnc(Nc2ccc(Cl)cn2)c([N+](=O)[O-])c1	1.89 µM
Clc1ccc(SCCOCCN2CCc3ccccc3C2)cc1	13.5 µM (inactive)
CC1CCN(C(=O)COC(=O)CCc2c[nH]c3ccccc23)CC1	12.8 µM (inactive)
c1ccc(Cc2nnc(-c3ccccc3)o2)cc1	0.19 µM
Cc1ccc(OCC(=O)N/N=C/c2ccc([N+](=O)[O-])o2)cc1	2.89 µM
O=C(CCSc1ccc(Cl)cc1)Nc1cccnc1	> 50 µM (inactive)
CC1=NNC(=O)/C1=C\c1cn(-c2ccccc2)nc1-c1ccccc1	7.73 µM
O=C(Nc1nnc(-c2ccco2)o1)c1ccc([N+](=O)[O-])s1	22.4 µM (inactive)
Cc1ccc(C(=O)Nc2nnc(-c3ccncc3)o2)cc1	23.3 µM (inactive)
Cc1n[nH]c(C)c1CCOc1ccc(C(C)C)cc1	19.5 µM (inactive)
Cc1cc(NC(=O)COc2ccccc2)ccc1Cl	5.43 µM
O=C(CCNc1ccc(F)cc1)c1ccco1	6.12 µM
NC(N)=N/N=C/c1cccc([N+](=O)[O-])c1O	2.01 µM
CCc1cc(OCCCCNCc2ccccc2)ccc1Cl	11.3 µM (inactive)
CN1CCC(O)(c2ccccc2)C(C(=O)c2ccccc2)C1 (stereo unspecified)	4.85 µM
Cc1cc(C=C2C(=O)NC(=S)NC2=O)c(C)n1C1CCCC1	3.88 µM
COC(=O)COc1cccc(NC(=O)c2ccc(Cl)cc2)c1	3.98 µM

SMILES	IC50
Cc1nc(-c2ccc(C(F)(F)F)cc2)sc1C(=O)NN	23.5 µM (inactive)
CCOc1ccc(OC(=O)c2ccc3c(=O)n4c(nc3c2)CCC4)cc1	0.5 µM
COc1ccc(CN2CCC(C(=O)Nc3ccc(Oc4cccnc4)cc3)CC2)c(C)c1C	7.54 µM
COc1cccc(C(=O)OCC(=O)Nc2nnc(-c3ccccc3)o2)c1	22.8 µM (inactive)
Cc1ccc(C)c(NC(=O)COC(=O)c2cc3ccccc3oc2=O)c1	17 µM (inactive)
COc1cccc(C(=O)N2N=C(c3ccccn3)CC2(O)C(F)(F)F)c1 (stereo unspecified)	12.3 µM (inactive)
C/C(=N\Nc1nc2ccccc2[nH]1)c1cc2ccccc2o1	8.88 µM
O=C(O)c1ccc(NS(=O)(=O)/C=C/c2ccccc2)cc1O	3.11 µM
O=C1CCCC(O)=C1C=Nc1ccc2c(c1)oc1ccccc12	8.18 µM
C/C(=N/Nc1ccnc2cc(Cl)ccc12)c1ccc(N)cc1	21.6 µM (inactive)
O=C(Nc1ncc([N+](=O)[O-])s1)c1cccs1	11.2 µM (inactive)
CC1CCN(C(=O)C2COc3ccccc3O2)CC1 (stereo unspecified)	0.23 µM
O=C(COc1ccc2ccccc2c1)NNC(=O)c1cccs1	4.52 µM
CCC(=O)N/N=C/c1ccc(-c2ccc(Cl)cc2)o1	8.36 µM
Nc1ccc2c(c1)oc1ccccc12	2.05 µM
O=c1[nH]c(=O)n(Cc2ccccc2Cl)c(O)c1/C=C1/C=CC=N1	0.25 µM
CNc1nnc(Sc2ncccc2[N+](=O)[O-])s1	5.8 µM
O=C(Nc1ccc(Cl)cn1)C1COc2ccccc2O1 (stereo unspecified)	3.32 µM
COc1ccccc1-n1c(=O)oc2ccc(Cl)cc2c1=O	12 µM (inactive)
CC(C)[C@H]1CN=C2N(C[C@H](C)NC(=O)CCC3CCCCC3)[C@H](Cc3ccc(O)cc3)CN21	19.3 µM (inactive)
